In this assay the test system is 3T3-L1 pre-adipocyte cell line. Put plainly: Mouse 3T3-L1 pre-adipocyte cells differentiation assay (Nile Red lipid fluorescence). The following applies: Mus musculus, 48 h; % of adipogenesis inhibition; compound at 25 μM in differentiation medium (2 days) and insulin medium (2 days); 3T3-L1 cells; read-out: Adipogenesis inhibition score. Type of assay: cell-based. How it is done:
Mouse 3T3-L1 Pre-Adipocyte Cells Differentiation Assay
Cell Culture and Treatment
Mouse (Mus musculus) 3T3-L1 pre-adipocyte cell line was purchased at ATCC.
Induction of adipocyte differentiation was performed according to Choi K C et al “The role of ghrelin and growth hormone secretagogues receptor on rat adipogenesis” Endocrinol 144: 754-759, 2003 with some modifications.
Briefly, 3T3-L1 pre-adipocytes were seeded in 24 well culture plates at a density of 3×10^4 cells/well in growth medium (DMEM containing 4.5 g/L glucose, 1 mM sodium pyruvate, 2 mM L-glutamine, 100 μg/mL streptomycin/penicilline, 25 mM HEPES and 10% calf serum (heat inactivated)). The resulting solution is used as a blank in the measure of fluorescence described below.
Cells were incubated at 37° C., 95% humidity and 10% CO2. Two days after reaching confluence (ninth day) growth medium was changed to differentiation medium (DMEM containing 4.5 g/L glucose, 2 mM L-glutamine, 100 μg/mL streptomycin/penicilline, 25 mM HEPES, 10% FBS (heat inactivated), 1 mM sodium pyruvate, 0.5 mM 3-isobutyl-1-methylxanthine, 0.25 μM dexamethasone, and 5 μg/mL insulin). After 48 h, the medium was replaced by insulin medium (DMEM containing 4.5 g/L glucose, 1 mM sodium pyruvate, 2 mM L-glutamine, 100 μg/mL streptomycin/penicillin, 25 mM HEPES, 10% FBS (inactivated) and 5 μg/mL insulin) for another 48 hours, and then incubated in 10% FBS/DMEM (same as insulin medium without insulin) for 4 days up to their complete differentiation.
The compounds to be tested were added at the 25 μM concentration to the differentiation medium (2 days) and to the insulin medium (2 days).
After incubation, the intracellular stored lipids were quantified by measuring the fluorescence after staining the lipids with the fluorescent dye Nile Red (9-diethylamino-5-benzo[α]phenoxazinone).
To carry out said lipid measurement, cells were lysed in hypotonic buffer (1 mM Tris-HCl pH=7.5) containing 2 μg/ml of Nile Red (9-diethylamino-5-benzo[t]phenoxazinone) for 15 min at 37° C.
Lysed cells were homogenized and TAG content was determined by monitoring Nile Red fluorescence in a laser spectral fluorometer. Excitation 522 nm; Emission 574 nm.
For each compound to be tested the following fluorescence measures were recorded: • FC: Fluorescence of a sample of lysed cells incubated in the presence of the compound in both the differentiation medium and in the insulin medium. • FB: Fluorescence of a blank sample of sample of pre-adipocytes in growth medium. • FNC: Fluorescence of a sample of lysed cells incubated with the differentiation medium and insulin medium not comprising any additional compound.
The inhibition of adipogenesis in the presence of the tested compounds is calculated from the following equation: % of adipogenesis inhibition=100−[100×((FC−FB)/(FNC−FB))]
% of adipogenesis inhibition (reflecting the activity against 3T3-L1 cell differentiation into adipocytes) was determined for each compound, and the effect at the […] has been chosen as the most representative value as to be shown in the structure-activity table.

What is called inhibition is the relative decrease from the control value, in per cent. `CCNC(=O)C(=O)C(Cc1ccccc1)NC(=O)[C@H](CC(C)C)NC(=O)c1ccccc1` (stereo partly drawn) [Example 1, N-((2S)-1-((4-(ethylamino)-3,4-dioxo-1-phenylbutan-2-yl)amino)-4-methyl-1-oxopentan-2-yl)benzamide]: the inhibition at 25 µM lay in the range of 15 to 30%. For `CCNC(=O)C(=O)C(Cc1ccccc1)NC(=O)[C@H](CC(C)C)NC(=O)c1ccccn1` (stereo partly drawn) [Example 4, N-((2S)-1-((4-(ethylamino)-3,4-dioxo-1-phenylbutan-2-yl)amino)-4-methyl-1-oxopentan-2-yl)picolinamide], the inhibition at 25 µM is 1 to 15%.

As to `CCNC(=O)C(=O)C(Cc1ccccc1)NC(=O)[C@H](CC(C)C)NC(=O)c1cncnc1` (stereo partly drawn) [Example 6, N-((2S)-1-((4-(ethylamino)-3,4-dioxo-1-phenylbutan-2-yl)amino)-4-methyl-1-oxopentan-2-yl)pyrimidine-5-carboxamide], the inhibition at 25 µM was in the range of 15 to 30%. To `COc1cccc(C(=O)N[C@@H](CC(C)C)C(=O)NC(Cc2ccccc2)C(=O)C(=O)NC(C)(C)C)c1` (stereo partly drawn) [Example 7, N-((2S)-1-((4-(tert-butylamino)-3,4-dioxo-1-phenylbutan-2-yl)amino)-4-methyl-1-oxopentan-2-yl)-3-methoxybenzamide] belongs 15 to 30%; to `CC(C)C[C@H](NC(=O)c1cncnc1)C(=O)NC(Cc1ccccc1)C(=O)C(=O)NC(C)(C)C` (stereo partly drawn) [Example 8, N-((2S)-1-((4-(tert-butylamino)-3,4-dioxo-1-phenylbutan-2-yl)amino)-4-methyl-1-oxopentan-2-yl)pyrimidine-5-carboxamide], 1 to 15%; to `CC(C)C[C@H](NC(=O)c1cccc2cnccc12)C(=O)NC(Cc1ccccc1)C(=O)C(=O)NC(C)(C)C` (stereo partly drawn) [Example 11, N-((2S)-1-((4-(tert-butylamino)-3,4-dioxo-1-phenylbutan-2-yl)amino)-4-methyl-1-oxopentan-2-yl)isoquinoline-5-carboxamide], 30 to 80%.

As for `CC(C)C[C@H](NC(=O)c1cnccn1)C(=O)NC(Cc1ccccc1)C(=O)C(=O)NC(C)(C)C` (stereo partly drawn) [Example 15, N-((2S)-1-((4-(tert-butylamino)-3,4-dioxo-1-phenylbutan-2-yl)amino)-4-methyl-1-oxopentan-2-yl)pyrazine-2-carboxamide], the inhibition at 25 µM lay in the range of 1 to 15%.

In the case of `CC(C)C[C@H](NC(=O)c1ccccc1)C(=O)NC(Cc1ccccc1)C(=O)C(=O)NC(C)(C)C` (stereo partly drawn) [Example 18, N-((2S)-1-((4-(tert-butylamino)-3,4-dioxo-1-phenylbutan-2-yl)amino)-4-methyl-1-oxopentan-2-yl)benzamide], the inhibition at 25 µM is 15 to 30%.

`CC(C)C[C@H](NC(=O)c1ccccc1)C(=O)NC(Cc1ccccc1)C(=O)C(=O)NC1CC1` (stereo partly drawn) [Example 20, N-((2S)-1-((4-(cyclopropylamino)-3,4-dioxo-1-phenylbutan-2-yl)amino)-4-methyl-1-oxopentan-2-yl)benzamide]: the inhibition at 25 µM lay in the range of 30 to 80%. The value for `CC(C)C[C@H](NC(=O)c1cccnc1)C(=O)NC(Cc1ccccc1)C(=O)C(=O)NC(C)(C)C` (stereo partly drawn) [Example 21, N-((2S)-1-((4-(tert-butylamino)-3,4-dioxo-1-phenylbutan-2-yl)amino)-4-methyl-1-oxopentan-2-yl)nicotinamide] was 1 to 15%; that for `Cc1ccc(C(=O)N[C@@H](CC(C)C)C(=O)NC(Cc2ccccc2)C(=O)C(=O)NC(C)(C)C)cn1` (stereo partly drawn) [Example 25, N-((2S)-1-((4-(tert-butylamino)-3,4-dioxo-1-phenylbutan-2-yl)amino)-4-methyl-1-oxopentan-2-yl)-6-methylnicotinamide] was 30 to 80%. As for `CC(C)C[C@H](NC(=O)c1cncc(F)c1)C(=O)NC(Cc1ccccc1)C(=O)C(=O)NC(C)(C)C` (stereo partly drawn) [Example 31, N-((2S)-1-(4-(tert-butylamino)-3,4-dioxo-1-phenylbutan-2-ylamino)-4-methyl-1-oxopentan-2-yl)-5-fluoronicotinamide], the inhibition at 25 µM fell in the range of 1 to 15%. To `CC(C)C[C@H](NC(=O)c1ccc(C(F)(F)F)nc1)C(=O)NC(Cc1ccccc1)C(=O)C(=O)NC(C)(C)C` (stereo partly drawn) [Example 32, N-((2S)-1-(4-(tert-butylamino)-3,4-dioxo-1-phenylbutan-2-ylamino)-4-methyl-1-oxopentan-2-yl)-6-(trifluoromethyl)nicotinamide] belongs 30 to 80%; to `CC(C)C[C@H](NC(=O)c1cnc2ccccc2c1)C(=O)NC(Cc1ccccc1)C(=O)C(=O)NC(C)(C)C` (stereo partly drawn) [Example 54, Quinoline-3-carboxylic acid [(1S)-1-(1-benzyl-2-tert-butylcarbamoyl-2-oxo-ethylcarbamoyl)-3-methyl-butyl]-amide], 30 to 80%; to `CC(C)C[C@H](NC(=O)c1cccnn1)C(=O)NC(Cc1ccccc1)C(=O)C(=O)NC(C)(C)C` (stereo partly drawn) [Example 55, Pyridazine-3-carboxylic acid [(1S)-1-(1-benzyl-2-tert-butylcarbamoyl-2-oxo-ethylcarbamoyl)-3-methyl-butyl]-amide], 15 to 30%. The value for `Cc1ccccc1C(=O)N[C@@H](CC(C)C)C(=O)NC(Cc1ccccc1)C(=O)C(=O)NC(C)(C)C` (stereo partly drawn) [Example 56, N-[(1S)-1-(1-benzyl-2-tert-butylcarbamoyl-2-oxo-ethylcarbamoyl)-3-methyl-butyl]-2-methyl-benzamide] was 15 to 30%; that for `CC(C)C[C@H](NC(=O)C1CCOCC1)C(=O)NC(Cc1ccccc1)C(=O)C(=O)NC(C)(C)C` (stereo partly drawn) [Example 57, Tetrahydro-pyran-4-carboxylic acid [(1S)-1-(1-benzyl-2-tert-butylcarbamoyl-2-oxo-ethylcarbamoyl)-3-methyl-butyl]-amide] was 15 to 30%. To `CC(C)C[C@H](NC(=O)c1ccccc1)C(=O)NC(Cc1ccccc1)C(=O)C(=O)NC1CCCCC1` (stereo partly drawn) [Example 58, N-[(1S)-1-(1-benzyl-2-cyclohexylcarbamoyl-2-oxo-ethylcarbamoyl)-3-methyl-butyl]-benzamide] belongs 30 to 80%. On to `CC(C)C[C@H](NC(=O)c1ccccc1)C(=O)NC(Cc1ccccc1)C(=O)C(=O)NCc1ccccc1` (stereo partly drawn) [Example 59, N-[(1S)-1-(1-benzyl-2-benzylcarbamoyl-2-oxo-ethylcarbamoyl)-3-methyl-butyl]-benzamide], for which the inhibition at 25 µM lay within 30 to 80%. As for `CC(C)C[C@H](NC(=O)c1cnccc1Cl)C(=O)NC(Cc1ccccc1)C(=O)C(=O)NC(C)(C)C` (stereo partly drawn) [Example 60, N-[(1S)-1-(1-benzyl-2-tert-butylcarbamoyl-2-oxo-ethylcarbamoyl)-3-methyl-butyl]-4-chloro-nicotinamide], the inhibition at 25 µM fell in the range of 30 to 80%.

For the molecule `CONC(=O)C(=O)C(Cc1ccccc1)NC(=O)[C@H](CC(C)C)NC(=O)c1cccc(OC)c1` (stereo partly drawn) [Example 61, N-[(1S)-1-(1-benzyl-2-methoxycarbamoyl-2-oxo-ethylcarbamoyl)-3-methyl-butyl]-3-methoxy-benzamide], the inhibition at 25 µM was in the range of 30 to 80%. In the case of `CONC(=O)C(=O)C(Cc1ccccc1)NC(=O)[C@H](CC(C)C)NC(=O)c1ccc2c(c1)OCO2` (stereo partly drawn) [Example 62, Benzo[1,3]dioxole-5-carboxylic acid [(1S)-1-(1-benzyl-2-methoxycarbamoyl-2-oxo-ethylcarbamoyl)-3-methyl-butyl]-amide], the inhibition at 25 µM lay within 30 to 80%. With `CCNC(=O)C(=O)C(Cc1ccccc1)NC(=O)[C@H](CC(C)C)NC(=O)OC(C)(C)C` (stereo partly drawn) [Example 64, tert-butyl (2S)-1-(4-(ethylamino)-3,4-dioxo-1-phenylbutan-2-ylamino)-4-methyl-1-oxopentan-2-ylcarbamate], the inhibition at 25 µM fell in the range of 30 to 80%. To `CCNC(=O)C(=O)C(Cc1ccccc1)NC(=O)[C@H](CC(C)C)NC(=O)NC(C)(C)C` (stereo partly drawn) [Example 65, (2S)-2-(3-tert-butylureido)-N-(4-(ethylamino)-3,4-dioxo-1-phenylbutan-2-yl)-4-methylpentanamide] belongs 15 to 30%; to `COCCOC(=O)N[C@@H](CC(C)C)C(=O)NC(Cc1ccccc1)C(=O)C(=O)NOC` (stereo partly drawn) [Example 67, [(1S)-1-(1-benzyl-2-methoxycarbamoyl-2-oxo-ethylcarbamoyl)-3-methyl-butyl]-carbamic acid 2-methoxy-ethyl ester], 15 to 30%.

The values are drawn from patent US10294269B2, “Dipeptidyl ketoamide compounds and their use for the treatment and/or prevention of fat accumulation” (LANDSTEINER GENMED, S.L., priority 2014, dated 2019).
